Source: PubChem BioAssay AID248 (DTP/NCI, 2004)
Where “and” joins values, the source holds several entries; their conditions need not be identical. Equal entries are not always repeated. Toxic doses and inconclusive results are not listed.

System: L1210 leukemia ip in BDF1 mice, survival T/C
Assay: NCI In Vivo Anticancer Drug Screen. Data for tumor model L1210 Leukemia (intraperitoneal) in B6D2F1 (BDF1) mice
Conditions: endpoint: mean survival time, higher = longer survival
Procedure, shortened: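 Value reflects the ratio of survival in compound-treated mice to survival in vehicle-treated controls, with both groups carrying the same transplanted tumor.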

[1] = dose: 100.0 mg/kg/injection, schedule: Q01DX001 (ip), vehicle: saline
[2] = dose: 200.0 mg/kg/injection, schedule: Q01DX001 (ip), vehicle: saline
[3] = dose: 400.0 mg/kg/injection, schedule: Q01DX001 (ip), vehicle: saline
[4] = dose: 100.0 mg/kg/injection, schedule: Q01DX009 (ip), vehicle: Klucel (hydroxypropylcellulose) (HPC)
[5] = dose: 200.0 mg/kg/injection, schedule: Q01DX009 (ip), vehicle: Klucel (hydroxypropylcellulose) (HPC)
[6] = dose: 100.0 mg/kg/injection, schedule: Q01DX001 (ip), vehicle: carboxymethylcellulose (CMC)
[7] = dose: 200.0 mg/kg/injection, schedule: Q01DX001 (ip), vehicle: carboxymethylcellulose (CMC)
[8] = dose: 400.0 mg/kg/injection, schedule: Q01DX001 (ip), vehicle: carboxymethylcellulose (CMC)
[9] = dose: 75.0 mg/kg/injection, schedule: Q01DX001 (ip), vehicle: saline
[10] = dose: 150.0 mg/kg/injection, schedule: Q01DX001 (ip), vehicle: saline

## O=C1c2ccccc2C(=O)N1CCCCCCN1C(=O)c2ccccc2C1=O
dose: 100.0 mg/kg/injection, schedule: Q04DX002 (ip), vehicle: gum acacia
  T/C: 96 % of control
dose: 200.0 mg/kg/injection, schedule: Q04DX002 (ip), vehicle: gum acacia
  T/C: 107 % of control
dose: 400.0 mg/kg/injection, schedule: Q04DX002 (ip), vehicle: gum acacia
  T/C: 101 % of control

## Nc1nc2c(ncn2C2OC(CO)C(O)C2O)c(=O)n1N (stereo not given)
[1]
  T/C: 102 % of control
[2]
  T/C: 101 % of control
[3]
  T/C: 95 % of control

## CC(=O)N(c1ccccc1)c1cc(Cl)cc[n+]1[O-]
[1]
  T/C: 96 % of control
[2]
  T/C: 96 % of control
[3]
  T/C: 97 % of control

## O=NN1CCCC1C(=O)O (stereo not given)
[1]
  T/C: 101 % of control
[2]
  T/C: 101 % of control and 93 % of control

## CC(=O)Nc1ccc(/C=N/N=C(N)N)cc1
dose: 63.0 mg/kg/injection, schedule: Q01DX Z (ip), vehicle: carboxymethylcellulose (CMC)
  T/C: 88 % of control
dose: 125.0 mg/kg/injection, schedule: Q01DX Z (ip), vehicle: carboxymethylcellulose (CMC)
  T/C: 100 % of control

## O=P(C1CCCCC1)(C1CCCCC1)C1CCCCC1
[4]
  T/C: 89 % of control
[5]
  T/C: 97 % of control

## Cc1ccc(S(=O)N(OCc2ccccc2)S(=O)c2ccc(C)cc2)cc1 (stereo not given)
dose: 100.0 mg/kg/injection, schedule: Q04DX002 (ip), vehicle: other
  T/C: 100 % of control
dose: 200.0 mg/kg/injection, schedule: Q04DX002 (ip), vehicle: other
  T/C: 100 % of control
dose: 400.0 mg/kg/injection, schedule: Q04DX002 (ip), vehicle: other
  T/C: 100 % of control

## Nc1cc(Cl)cc2c1-c1ccc(Cl)cc1/C2=N\O
[6]
  T/C: 100 % of control
[7]
  T/C: 97 % of control
[8]
  T/C: 97 % of control

## OC(CCl)CBr (stereo not given)
dose: 6.25 mg/kg/injection, schedule: Q01DX009 (ip), vehicle: saline
  T/C: 96 % of control
dose: 6.25 mg/kg/injection, schedule: Q04DX003 (ip), vehicle: saline
  T/C: 97 % of control
dose: 12.5 mg/kg/injection, schedule: Q01DX009 (ip), vehicle: saline
  T/C: 96 % of control
dose: 12.5 mg/kg/injection, schedule: Q04DX003 (ip), vehicle: saline
  T/C: 92 % of control
dose: 25.0 mg/kg/injection, schedule: Q01DX009 (ip), vehicle: saline
  T/C: 94 % of control
dose: 25.0 mg/kg/injection, schedule: Q04DX003 (ip), vehicle: saline
  T/C: 93 % of control

## CC1c2nc(N)nc(N)c2CN1C(=O)c1ccccc1 (stereo not given)
[6]
  T/C: 98 % of control
[7]
  T/C: 98 % of control
[8]
  T/C: 97 % of control

## CCCCCCCc1nc(N)nc(N2CCOCC2)n1
dose: 100.0 mg/kg/injection, schedule: Q04DX002 (ip), vehicle: Klucel (hydroxypropylcellulose) (HPC)
  T/C: 89 % of control
dose: 200.0 mg/kg/injection, schedule: Q04DX002 (ip), vehicle: Klucel (hydroxypropylcellulose) (HPC)
  T/C: 100 % of control
dose: 400.0 mg/kg/injection, schedule: Q04DX002 (ip), vehicle: Klucel (hydroxypropylcellulose) (HPC)
  T/C: 110 % of control

## CN1N=C([P+](c2ccccc2)(c2ccccc2)c2ccccc2)CC1(c1ccccc1)c1ccccc1
[9]
  T/C: 103 % of control
[10]
  T/C: 100 % of control

## Cc1cc(Cl)c(C)c(Cl)c1Cl
dose: 100.0 mg/kg/injection, schedule: Q01DX001 (ip), vehicle: acetone
  T/C: 100 % of control
dose: 100.0 mg/kg/injection, schedule: Q01DX009 (ip), vehicle: acetone
  T/C: 92 % of control
dose: 100.0 mg/kg/injection, schedule: Q04DX003 (ip), vehicle: acetone
  T/C: 93 % of control
dose: 200.0 mg/kg/injection, schedule: Q01DX001 (ip), vehicle: acetone
  T/C: 97 % of control
dose: 200.0 mg/kg/injection, schedule: Q01DX009 (ip), vehicle: acetone
  T/C: 95 % of control
dose: 200.0 mg/kg/injection, schedule: Q04DX003 (ip), vehicle: acetone
  T/C: 97 % of control
dose: 400.0 mg/kg/injection, schedule: Q01DX001 (ip), vehicle: acetone
  T/C: 90 % of control
dose: 400.0 mg/kg/injection, schedule: Q01DX009 (ip), vehicle: acetone
  T/C: 95 % of control
dose: 400.0 mg/kg/injection, schedule: Q04DX003 (ip), vehicle: acetone
  T/C: 92 % of control

## COC(=O)c1cn(/C=C/c2ccccc2)cn1
dose: 87.5 mg/kg/injection, schedule: Q04DX003 (ip), vehicle: Klucel (hydroxypropylcellulose) (HPC)
  T/C: 94 % of control
dose: 175.0 mg/kg/injection, schedule: Q04DX003 (ip), vehicle: Klucel (hydroxypropylcellulose) (HPC)
  T/C: 89 % of control
dose: 350.0 mg/kg/injection, schedule: Q04DX003 (ip), vehicle: Klucel (hydroxypropylcellulose) (HPC)
  T/C: 97 % of control

## COc1ccc(/C=C2\C(=O)OC(=O)\C2=C\c2ccc(OC)c(OC)c2)cc1OC
[4]
  T/C: 100 % of control
dose: 100.0 mg/kg/injection, schedule: Q04DX003 (ip), vehicle: Klucel (hydroxypropylcellulose) (HPC)
  T/C: 102 % of control
[5]
  T/C: 97 % of control
dose: 200.0 mg/kg/injection, schedule: Q04DX003 (ip), vehicle: Klucel (hydroxypropylcellulose) (HPC)
  T/C: 102 % of control
dose: 400.0 mg/kg/injection, schedule: Q04DX003 (ip), vehicle: Klucel (hydroxypropylcellulose) (HPC)
  T/C: 96 % of control

## C1CCC(C2CCC(C3CCCCC3)CC2)CC1 (stereo not given)
[1]
  T/C: 90 % of control
[2]
  T/C: 90 % of control

## [Cl][Sn]([Cl])([Cl])[Cl]
dose: 100.0 mg/kg/injection, schedule: Q04DX003 (ip), vehicle: saline
  T/C: 95 % of control

## CCN(CC)C(=S)SCc1ccccc1OC(=O)NC
[9]
  T/C: 101 % of control
[10]
  T/C: 98 % of control

## C/C(=N\N=C(/C)c1ccc(N)cc1)c1ccc(N)cc1
[1]
  T/C: 90 % of control
[3]
  T/C: 96 % of control

## c1ccc2c(c1)CCc1ccccc1CNC2
dose: 25.0 mg/kg/injection, schedule: Q04DX002 (ip), vehicle: Klucel (hydroxypropylcellulose) (HPC)
  T/C: 111 % of control
dose: 50.0 mg/kg/injection, schedule: Q04DX002 (ip), vehicle: Klucel (hydroxypropylcellulose) (HPC)
  T/C: 106 % of control

## Cc1cccc2c(Nc3ccc(NS(C)(=O)=O)cc3)c3ccc([N+](=O)[O-])cc3nc12
dose: 4.8 mg/kg/injection, schedule: Q01DX009 (ip), vehicle: Klucel (hydroxypropylcellulose) (HPC)
  T/C: 151 % of control
dose: 9.5 mg/kg/injection, schedule: Q01DX009 (ip), vehicle: Klucel (hydroxypropylcellulose) (HPC)
  T/C: 176 % of control
dose: 10.0 mg/kg/injection, schedule: Q01DX009 (sc), vehicle: saline
  T/C: 107 % of control
dose: 19.0 mg/kg/injection, schedule: Q01DX009 (ip), vehicle: Klucel (hydroxypropylcellulose) (HPC)
  T/C: 154 % of control
dose: 20.0 mg/kg/injection, schedule: Q01DX009 (sc), vehicle: saline
  T/C: 121 % of control
dose: 40.0 mg/kg/injection, schedule: Q01DX009 (sc), vehicle: saline
  T/C: 123 % of control
dose: 80.0 mg/kg/injection, schedule: Q01DX009 (sc), vehicle: saline
  T/C: 152 % of control
dose: 178.0 mg/kg/injection, schedule: Q01DX001 (ip), vehicle: saline
  T/C: 102 % of control
dose: 267.0 mg/kg/injection, schedule: Q01DX001 (ip), vehicle: saline
  T/C: 97 % of control
[3]
  T/C: 103 % of control

## CC(=O)c1c(OC(=O)c2ccccc2)cc(OC(=O)c2ccccc2)cc1OC(=O)c1ccccc1
[4]
  T/C: 101 % of control
dose: 100.0 mg/kg/injection, schedule: Q01DX009 (ip), vehicle: saline
  T/C: 97 % of control
[5]
  T/C: 93 % of control
dose: 200.0 mg/kg/injection, schedule: Q01DX009 (ip), vehicle: saline
  T/C: 106 % of control
dose: 400.0 mg/kg/injection, schedule: Q01DX009 (ip), vehicle: Klucel (hydroxypropylcellulose) (HPC)
  T/C: 95 % of control
dose: 400.0 mg/kg/injection, schedule: Q01DX009 (ip), vehicle: saline
  T/C: 100 % of control

## O=c1oc2cc(N=Cc3ccc4c(c3)OCO4)ccc2c2ccccc12
dose: 100.0 mg/kg/injection, schedule: Q01DX001 (ip), vehicle: other
  T/C: 91 % of control
dose: 200.0 mg/kg/injection, schedule: Q01DX001 (ip), vehicle: other
  T/C: 93 % of control
dose: 400.0 mg/kg/injection, schedule: Q01DX001 (ip), vehicle: other
  T/C: 90 % of control

## CCCCCCCCCCCC[As](=O)(O)O
dose: 50.0 mg/kg/injection, schedule: Q01DX001 (ip), vehicle: carboxymethylcellulose (CMC)
  T/C: 96 % of control
[6]
  T/C: 93 % of control

## O=C(c1ccccc1)N1CC2CC3OC3c3cccc1c32 (stereo not given)
dose: 100.0 mg/kg/injection, schedule: Q04DX003 (ip), vehicle: saline with Tween-80
  T/C: 88 % of control
dose: 200.0 mg/kg/injection, schedule: Q04DX003 (ip), vehicle: saline with Tween-80
  T/C: 92 % of control

## Nc1nc(N)c(N)c(Nc2ccc(O)cc2)n1
dose: 100.0 mg/kg/injection, schedule: Q01DX Z (ip), vehicle: saline
  T/C: 102 % of control
